{"source": "patent US20190374601A1", "about": "“METHODS FOR TREATING FUNGAL INFECTIONS” (priority 2017, published 2019)", "format_in_all_cases": "in vivo", "key": {"[1]": {"test_system": "T. mentagrophytes ATCC 24953", "test": "Hair root invasion test (mycological evaluation), T. mentagrophytes dermatophytosis guinea pig model, Example 1", "details": "evaluated study day 10, relative to vehicle control", "procedure": "(§1) A request was made to the Animal Resource Center (ARC) at Case Western Reserve University to order the required number of male albino Harlan-Sprague-Dawley Guinea-Pigs (San Diego, Calif.) with a body weight of 450-500 g. Animals were allowed to acclimate for a minimum of 5 days prior to use. Environmental controls for the animal room were set to maintain a temperature of 16 to 22° C., a relative humidity of 30-70%, and a 12:12 light-dark cycle.\n(§2) T. mentagrophytes ATCC 24953 was used as the infecting fungus. This strain was selected because it can cause skin infection and results in inflammatory reaction.\n(§3) T. mentagrophytes (from frozen stock) was sub-cultured on Potato Dextrose Agar plates and incubated at 30° C. for 5-7 days. The colonies were scraped from the plates using sterile normal saline (NaCl 0.85%) solution. After washing for three times with sterile saline the conidia were re-suspended in the same solution. Ten-fold dilutions of conidia suspension were prepared and counted using a hemacytometer. Working suspension of conidia was prepared at a final concentration of 1×10^7 Colony Forming Units (CFUs)/100 μL in normal saline.\n(§4) Each animal was anesthetized with a cocktail of xylazine and ketamine: 0.2 mL intramuscularly. Using an electric shaver, hair was clipped on left side of the guinea pig back. A closer shave was done with a disposable razor. Using a stencil, a square of 2.5 cm×2.5 cm was marked. The marked skin area was abraded with sterile fine grit sandpaper. A cell suspension containing 1×10^7 conidia in 100 μL was applied and rubbed thoroughly on the abraded skin.\n(§5) Beginning two hours post inoculation, animals were treated subcutaneously (SQ) for CD101 and orally (PO) terbinafine once daily for a period of nine days, or once a week on days 1 and 8.\n(§6) Study Day 1: Infected the animals with T. mentagrophytes and begin treatments.\n(§7) Study Day 9 (treatment day 9): End treatments.\n(§8) Study Day 10: Clinical evaluation of the four quadrants in the marked area was done. Hair samples were obtained from each quadrant (10 per quadrant). Hairs were planted in Potato Dextrose Agar, and incubated for 48 h for mycological evaluation. Procedures for clinical and mycological evaluations are described below.\n(§9) CD101 was administered SQ in 0.3 mL, while the terbinafine was given orally in 0.3 mL. Vehicle treated group was also included.\n(§10) Hair samples were removed with a sterile forceps from four quadrants. Ten hair samples from each quadrant were inoculated onto the corresponding quadrant on the Potato Dextrose agar plate and incubated at 30° C. for 2 days. The fungal growth at the hair root was examined under a stereomicroscope. The effectiveness of a compound in reducing the number of mycologically positive hair sample per treated group is expressed as percentage relative to the vehicle control group of animals using the following formula:\nwhere, T=Positive hair in the test group, K=Positive hair in the Untreated control."}, "[2]": {"test_system": "T. mentagrophytes ATCC 24953", "test": "Clinical evaluation of infected skin, T. mentagrophytes dermatophytosis guinea pig model, Example 1", "details": "evaluated study day 10, relative to vehicle control", "procedure": "as §1, §2, §3, §4, §5, §6, §7, §8, §9\n(§11) Clinical assessment of local changes of the infected skin area was scored as follows:\n(§12) 1=Few slightly erythematous places on the skin\n(§13) 2=Well-defined redness, swelling with bristling hairs.\n(§14) 3=Large areas or marked redness incrustation, scaling, bald patches, ulcerated in places.\n(§15) 4=Partial damage to the integument and loss of hair\n(§16) 5=Extensive damage to the integument and complete loss of hair at the site of infection.\nAny other local skin reactions were noted. The assessment of clinical evaluation in the change of scores per treatment group is expressed as percentage relative to the vehicle control group of animals using the following formula:\nwhere, T=Scores in the test group. K=Scores in the untreated control"}, "[3]": {"test_system": "T. mentagrophytes", "test": "Hair root invasion test (mycological evaluation), T. mentagrophytes dermatophytosis guinea pig model, different doses once weekly, Example 2", "details": "10 mg/kg PO days 1 and 8, evaluated study day 12, relative to vehicle control", "procedure": "(§17) Procedures for animal care and use, preparation of standard inoculum, and infection of the animals were carried out following the same steps as described in Example 1.\n(§18) Infected guinea pigs were randomized into the following (1)-(5) groups (10 per group) (see Table 4): (1) a vehicle control (water+mannitol); (2) terbinafine 10 mg/kg PO days 1 and 8, as a positive control; (3) CD101 10 mg/kg SQ days 1 and 8; (4) CD101 20 mg/kg SQ days 1 and 8; and (5) CD101 40 mg/kg SQ days 1 and 8.\n(§19) Animals were treated with CD101 SQ or PO (for terbinafine) once a week on days 1 and 8.\n(§20) Study Day 1: Infect the animals with T. mentagrophytes and begin treatments.\n(§21) Study Day 8: Last treatment.\nas §8, with “Day 12:” for “Day 10:”, “area is” for “area was”, “each quadrant. Hairs” for “each quadrant”, “per quadrant)” for “per quadrant). Hairs”\n(§22) The compounds was administered SQ or PO (0.3 mL/kg […]).\nas §10, with “with” for “with a”, “was” for “is”, “untreated” for “vehicle”\nwhere T=Positive hair in the test group, K=Positive hair in the Untreated control."}, "[4]": {"test_system": "T. mentagrophytes", "test": "Clinical evaluation of infected skin, T. mentagrophytes dermatophytosis guinea pig model, different doses once weekly, Example 2", "details": "10 mg/kg PO days 1 and 8, evaluated study day 12, relative to vehicle control", "procedure": "as §17, §18, §19, §20, §21\nas §8, with “Day 12:” for “Day 10:”, “area is” for “area was”, “each quadrant. Hairs” for “each quadrant”, “per quadrant)” for “per quadrant). Hairs”\nas §22, §11, §12, §13, §14, §15, §16\nAny other local skin reactions were noted. The assessment of clinical evaluation in the change of scores per treatment group was expressed as percentage relative to the untreated control group of animals using the following formula:\nwhere T=Scores in the test group. K=Scores in the untreated control"}, "[5]": {"details": "10 mg/kg PO daily for nine days"}, "[6]": {"details": "10 mg/kg PO daily for nine days, listed as terbinafine"}, "[7]": {"details": "10 mg/kg PO once a week (days 1 and 8)"}, "[8]": {"details": "10 mg/kg PO once a week (days 1 and 8), listed as terbinafine"}}, "note": "Marks after values point to notes of the source that are not given here.", "data": [{"molecule": "CN(C/C=C/C#CC(C)(C)C)Cc1cccc2ccccc12", "note": "[Terbinafine, terbinafine, reference compound]", "values": [{"measurement": "Percent Efficacy Mycological", "setting": "[1]; [5]", "result": "91.6* %"}, {"measurement": "Percent Efficacy Mycological", "setting": "[1]; [6]", "result": 91.6, "unit": "%"}, {"measurement": "Percent Efficacy Mycological", "setting": "[1]; [7]", "result": "83.1* %"}, {"measurement": "Percent Efficacy Mycological", "setting": "[1]; [8]", "result": 83.1, "unit": "%"}, {"measurement": "Percent Efficacy Clinical", "setting": "[2]; [5]", "result": "78.7* %"}, {"measurement": "Percent Efficacy Clinical", "setting": "[2]; [6]", "result": 78.7, "unit": "%"}, {"measurement": "Percent Efficacy Clinical", "setting": "[2]; [7]", "result": "60.6* %"}, {"measurement": "Percent Efficacy Clinical", "setting": "[2]; [8]", "result": 60.6, "unit": "%"}, {"measurement": "Percent Efficacy Mycological", "setting": "[3]", "result": "54.2* %"}, {"measurement": "Percent Efficacy Mycological", "setting": "[3]; listed as terbinafine", "result": 54.2, "unit": "%"}, {"measurement": "Percent Efficacy Clinical", "setting": "[4]", "result": "76.8* %"}, {"measurement": "Percent Efficacy Clinical", "setting": "[4]; listed as terbinafine", "result": 76.8, "unit": "%"}]}]}
